In patent publication US20090232838A1, “Ligands of melanocortin receptors” (priority 2005, published 2009):
pEC50, pKi: −log10 of the molar value.

How the values were obtained:
hMC4-R [1] = target: T1, hMC4-R (Homo sapiens, UniProt P32245); experiment: cyclic AMP bioassay, hMC4-R; type: cell-based
T1 construct: expressed in transfected cells; host or cells: CHO-K1

hMC3-R [2] = target: T2, hMC3-R (Homo sapiens, UniProt P41968); experiment: cyclic AMP bioassay, hMC3-R; type: cell-based
T2 construct: expressed in transfected cells; host or cells: CHO-K1
Method: (§3) Intracellular cyclic AMP (cAMP) levels were determined by an electrochemiluminescence (ECL) assay (Meso Scale Discovery®, Gaithersburg, Md.; referred to hereinafter as MSD). […] Transgenic CHO-K1 cells stably expressing hMC receptor subtypes 1, 3, 4 or 5 were dispensed at a density of approximately 7,000 cells/well in 384-well Multi-Arrays plates (MSD) containing integrated carbon electrodes and coated with anti-CAMP antibody. Increasing concentrations of the test compounds were added and the cells were incubated for approximately 40 minutes at approximately 37° C. […] At the end of the second incubation period read buffer (Tris-buffered solution containing an ECL co-reactant and Triton X-100 at ph 7.8) was added and the cAMP levels in the cell lysates were immediately determined by ECL detection with a Sector Imager 6000 Reader® (MSD). Data were analyzed using a computer-assisted non-linear regression analysis (XL fit; IDBS) and reported as either an EC50 value or a Kb value.
(§4) The Kb value reflects the potency of an antagonist and is determined by Schild analysis. In brief, concentration-response curves of an agonist are carried out in the presence of increasing concentrations of an antagonist. […] It is calculated by extrapolating the line on a Schild plot to zero on the y-axis.

hMC1-R [3] = target: T3, hMC1-R (Homo sapiens, UniProt Q01726); experiment: cyclic AMP bioassay, hMC1-R; type: cell-based
T3 construct: expressed in transfected cells; host or cells: CHO-K1
Method: as §3, §4

hMC1-R [4] = target: T3, hMC1-R; experiment: Radioligand binding assay, hMC1-R
Method: (§1) Cellular membranes used for the in vitro receptor binding assays were obtained from transgenic CHO-K1 cells stably expressing hMC-R receptor subtypes 1, 3, 4 or 5. […] The pellets were resuspended in the same buffer and centrifuged at 50,000 g for 10 minutes at approximately 4° C. The washed pellets containing the cellular membranes were stored at approximately −80° C.
(§2) Filters were washed three times with 50 mM Tris-HCl at p-H 7.4 at a temperature of approximately 0-4° C. and then assayed for radioactivity using a Packard Topcount® scintillation counter. Binding data were analyzed by computer-assisted non-linear regression analysis (XL fit; IDBS).

hMC3-R [5] = target: T2, hMC3-R; experiment: Radioligand binding assay, hMC3-R
Method: as §1, §2

hMC5-R = target: T4, hMC5-R (Homo sapiens, UniProt P33032); experiment: cyclic AMP bioassay, hMC5-R; type: cell-based
T4 construct: expressed in transfected cells; host or cells: CHO-K1
Method: as §3, §4

hMC4-R [6] = target: T1, hMC4-R; experiment: Radioligand binding assay, hMC4-R
Method: as §1, §2

T1 sequence (P32245 whole entry): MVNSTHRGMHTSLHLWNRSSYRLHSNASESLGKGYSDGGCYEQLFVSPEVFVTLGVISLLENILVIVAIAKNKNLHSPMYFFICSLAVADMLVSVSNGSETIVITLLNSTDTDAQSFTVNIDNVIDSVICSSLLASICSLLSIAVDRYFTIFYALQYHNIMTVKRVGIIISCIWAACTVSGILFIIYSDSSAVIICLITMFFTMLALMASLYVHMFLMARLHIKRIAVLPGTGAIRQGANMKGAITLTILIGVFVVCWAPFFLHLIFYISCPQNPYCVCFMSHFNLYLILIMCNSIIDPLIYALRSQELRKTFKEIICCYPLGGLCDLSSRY
T2 sequence (P41968 whole entry): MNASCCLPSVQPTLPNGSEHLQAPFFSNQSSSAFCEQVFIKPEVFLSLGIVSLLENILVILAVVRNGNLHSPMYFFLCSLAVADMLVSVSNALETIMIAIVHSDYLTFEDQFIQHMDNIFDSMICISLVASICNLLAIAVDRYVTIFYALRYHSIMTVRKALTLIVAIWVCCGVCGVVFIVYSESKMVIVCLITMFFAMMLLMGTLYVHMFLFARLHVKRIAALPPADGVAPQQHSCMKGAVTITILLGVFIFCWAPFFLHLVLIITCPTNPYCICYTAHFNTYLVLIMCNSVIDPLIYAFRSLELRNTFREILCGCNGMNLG
T3 sequence (Q01726 whole entry): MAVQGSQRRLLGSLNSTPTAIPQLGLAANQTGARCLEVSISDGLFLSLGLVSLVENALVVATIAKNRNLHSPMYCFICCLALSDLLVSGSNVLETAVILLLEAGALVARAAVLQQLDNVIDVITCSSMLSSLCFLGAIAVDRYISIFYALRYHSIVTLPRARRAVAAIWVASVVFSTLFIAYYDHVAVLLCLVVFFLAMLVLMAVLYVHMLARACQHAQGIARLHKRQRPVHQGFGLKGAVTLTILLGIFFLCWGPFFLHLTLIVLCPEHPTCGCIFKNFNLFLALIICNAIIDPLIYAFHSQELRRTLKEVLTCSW
T4 sequence (P33032 whole entry): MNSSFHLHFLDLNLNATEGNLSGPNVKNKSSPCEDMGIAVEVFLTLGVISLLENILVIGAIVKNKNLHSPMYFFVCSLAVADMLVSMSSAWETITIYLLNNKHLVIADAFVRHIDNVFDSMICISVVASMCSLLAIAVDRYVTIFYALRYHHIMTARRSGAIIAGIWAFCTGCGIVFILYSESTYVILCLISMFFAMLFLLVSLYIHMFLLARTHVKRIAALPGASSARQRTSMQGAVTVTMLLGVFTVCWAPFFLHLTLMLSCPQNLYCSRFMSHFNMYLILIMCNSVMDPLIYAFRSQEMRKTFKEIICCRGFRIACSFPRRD

Compound	Kb (hMC4-R [1])	Kb (hMC3-R [2])	pEC50 (hMC1-R [3])	pKi (hMC1-R [4])	pKi (hMC3-R [5])	pEC50 (hMC5-R)	pEC50 (hMC4-R [1])	pKi (hMC4-R [6])	pEC50 (hMC3-R [2])
CC(=O)N[C@H]1CSSC[C@@H](C(=O)N2CCC[C@H]2C(=O)N2CCC[C@H]2C(=O)N[C@@H](CCCCN)C(=O)N[C@@H](CC(=O)O)C(=O)NCCC(=O)N[C@@H](CCCNC(=N)N)C(=O)N[C@@H](CCCNC(=N)N)C(=O)N[C@@H](CCCNC(=N)N)C(=O)N[C@@H](CCCNC(=N)N)C(=O)N[C@@H](CCCNC(=N)N)C(=O)N[C@@H](CCCNC(=N)N)C(=O)N[C@@H](CCC(N)=O)C(=O)N[C@@H](CCCNC(=N)N)C(=O)N[C@@H](CCCNC(=N)N)C(=O)N[C@@H](CCCNC(=N)N)C(N)=O)NC(=O)[C@H](C)NC(=O)[C@H](Cc2ccc3ccccc3c2)NC(=O)[C@H](CCCNC(=N)N)NC(=O)[C@@H](Cc2ccc3ccccc3c2)NC(=O)[C@H](Cc2c[nH]cn2)NC(=O)[C@H](CCC(=O)O)NC1=O	13.4 nM	13.6 nM	7.54	8.44					
CCCC[C@H](NC(C)=O)C(=O)N[C@H]1CSSC[C@@H](C(=O)NCCC(=O)NCC(=O)N[C@@H](CCCNC(=N)N)C(=O)N[C@@H](CCCCN)C(=O)N[C@@H](CCCNC(=N)N)C(=O)N[C@@H](CCCNC(=N)N)C(=O)N[C@@H](CCCNC(=N)N)C(=O)N[C@@H](CCC(N)=O)C(=O)N[C@@H](CCCNC(=N)N)C(=O)N[C@@H](CCCNC(=N)N)C(=O)N[C@@H](CCCNC(=N)N)C(N)=O)NC(=O)[C@H](Cc2c[nH]c3ccccc23)NC(=O)[C@H](CCCNC(=N)N)NC(=O)[C@@H](Cc2ccccc2)NC(=O)[C@H](Cc2c[nH]cn2)NC(=O)[C@@H](C)NC1=O			8.55		8.92	6.25	9.53	9.53	8.48
CC(=O)N[C@H]1CSSC[C@@H](C(=O)N2CCC[C@H]2C(=O)N2CCC[C@H]2C(=O)N[C@@H](CCCCN)C(=O)N[C@@H](CC(=O)O)C(=O)NCCC(=O)NCC(=O)N[C@@H](CCCNC(=N)N)C(=O)N[C@@H](CCCCN)C(=O)N[C@@H](CCCNC(=N)N)C(=O)N[C@@H](CCCNC(=N)N)C(=O)N[C@@H](CCCNC(=N)N)C(=O)N[C@@H](CCC(N)=O)C(=O)N[C@@H](CCCNC(=N)N)C(=O)N[C@@H](CCCNC(=N)N)C(=O)N[C@@H](CCCNC(=N)N)C(N)=O)NC(=O)[C@H](C)NC(=O)[C@H](Cc2ccc3ccccc3c2)NC(=O)[C@H](CCCNC(=N)N)NC(=O)[C@@H](Cc2ccc3ccccc3c2)NC(=O)[C@H](Cc2c[nH]cn2)NC(=O)[C@H](CCC(=O)O)NC1=O	17.1 nM	22.8 nM	6.51	8.25		6.24			
CC(=O)N[C@H]1CSSC[C@@H](C(=O)N2CCC[C@H]2C(=O)N2CCC[C@H]2C(=O)N[C@@H](CCCCN)C(=O)N[C@@H](CC(=O)O)C(=O)NCCC(=O)N[C@@H](Cc2ccc(O)cc2)C(=O)NCC(=O)N[C@@H](CCCNC(=N)N)C(=O)N[C@@H](CCCCN)C(=O)N[C@@H](CCCNC(=N)N)C(=O)N[C@@H](CCCNC(=N)N)C(=O)N[C@@H](CCCNC(=N)N)C(=O)N[C@@H](CCC(N)=O)C(=O)N[C@@H](CCCNC(=N)N)C(=O)N[C@@H](CCCNC(=N)N)C(=O)N[C@@H](CCCNC(=N)N)C(N)=O)NC(=O)[C@H](C)NC(=O)[C@H](Cc2cccc3ccccc23)NC(=O)[C@H](CCCNC(=N)N)NC(=O)[C@@H](Cc2ccc3ccccc3c2)NC(=O)[C@H](Cc2c[nH]cn2)NC(=O)[C@H](CCC(=O)O)NC1=O	14.6 nM	26.3 nM	6.99		8.79	6.58			
